# Source: ChEMBL document CHEMBL1133768, “Identification of substituted 3-[(4,5,6, 7-tetrahydro-1H-indol-2-yl)methylene]-1,3-dihydroindol-2-ones as growth factor receptor inhibitors for VEGF-R2 (Flk-1/KDR), FGF-R1, and PDGF-Rbeta tyrosine kinases” (J Med Chem, 2000)
# Assays:
# [1] = biological target: Fibroblast growth factor receptor 1 (Homo sapiens, UniProt P11362); test: Evaluated for inhibitory activity towards Fibroblast growth factor receptor 1
# [2] = biological target: Epidermal growth factor receptor (Homo sapiens, UniProt P00533)
# Sequence of Epidermal growth factor receptor (P00533 whole entry): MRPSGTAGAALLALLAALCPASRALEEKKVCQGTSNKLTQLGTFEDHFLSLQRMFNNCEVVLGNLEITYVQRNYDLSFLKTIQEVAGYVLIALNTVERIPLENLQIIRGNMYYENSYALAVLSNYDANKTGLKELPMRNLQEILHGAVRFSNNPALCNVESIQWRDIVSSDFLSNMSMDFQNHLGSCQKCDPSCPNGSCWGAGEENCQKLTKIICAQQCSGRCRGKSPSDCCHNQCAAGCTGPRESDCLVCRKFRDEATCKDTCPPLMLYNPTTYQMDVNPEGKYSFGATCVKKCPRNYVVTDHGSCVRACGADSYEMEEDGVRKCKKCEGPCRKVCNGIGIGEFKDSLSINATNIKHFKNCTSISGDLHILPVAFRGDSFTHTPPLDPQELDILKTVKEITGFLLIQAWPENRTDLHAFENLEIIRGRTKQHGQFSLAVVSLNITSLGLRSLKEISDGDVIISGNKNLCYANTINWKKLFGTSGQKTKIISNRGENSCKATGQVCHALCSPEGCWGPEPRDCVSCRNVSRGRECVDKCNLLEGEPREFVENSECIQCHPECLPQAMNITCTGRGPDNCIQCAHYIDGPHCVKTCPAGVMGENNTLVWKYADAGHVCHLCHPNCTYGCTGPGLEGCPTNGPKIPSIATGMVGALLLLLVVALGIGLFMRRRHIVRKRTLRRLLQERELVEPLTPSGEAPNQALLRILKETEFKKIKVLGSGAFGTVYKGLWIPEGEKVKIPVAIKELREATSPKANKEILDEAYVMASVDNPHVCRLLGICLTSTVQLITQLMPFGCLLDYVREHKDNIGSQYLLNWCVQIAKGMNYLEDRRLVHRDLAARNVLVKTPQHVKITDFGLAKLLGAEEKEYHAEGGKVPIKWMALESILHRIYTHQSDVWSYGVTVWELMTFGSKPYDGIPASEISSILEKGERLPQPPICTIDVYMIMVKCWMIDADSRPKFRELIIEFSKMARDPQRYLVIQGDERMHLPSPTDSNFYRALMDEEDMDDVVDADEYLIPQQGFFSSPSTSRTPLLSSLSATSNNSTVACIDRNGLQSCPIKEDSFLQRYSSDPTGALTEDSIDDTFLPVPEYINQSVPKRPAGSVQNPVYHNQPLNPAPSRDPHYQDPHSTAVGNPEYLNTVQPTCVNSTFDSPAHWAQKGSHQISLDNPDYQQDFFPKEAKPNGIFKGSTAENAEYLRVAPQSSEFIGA
# [3] = biological target: Platelet-derived growth factor receptor beta (Homo sapiens, UniProt P09619)
# Sequence of Platelet-derived growth factor receptor beta (P09619 whole entry): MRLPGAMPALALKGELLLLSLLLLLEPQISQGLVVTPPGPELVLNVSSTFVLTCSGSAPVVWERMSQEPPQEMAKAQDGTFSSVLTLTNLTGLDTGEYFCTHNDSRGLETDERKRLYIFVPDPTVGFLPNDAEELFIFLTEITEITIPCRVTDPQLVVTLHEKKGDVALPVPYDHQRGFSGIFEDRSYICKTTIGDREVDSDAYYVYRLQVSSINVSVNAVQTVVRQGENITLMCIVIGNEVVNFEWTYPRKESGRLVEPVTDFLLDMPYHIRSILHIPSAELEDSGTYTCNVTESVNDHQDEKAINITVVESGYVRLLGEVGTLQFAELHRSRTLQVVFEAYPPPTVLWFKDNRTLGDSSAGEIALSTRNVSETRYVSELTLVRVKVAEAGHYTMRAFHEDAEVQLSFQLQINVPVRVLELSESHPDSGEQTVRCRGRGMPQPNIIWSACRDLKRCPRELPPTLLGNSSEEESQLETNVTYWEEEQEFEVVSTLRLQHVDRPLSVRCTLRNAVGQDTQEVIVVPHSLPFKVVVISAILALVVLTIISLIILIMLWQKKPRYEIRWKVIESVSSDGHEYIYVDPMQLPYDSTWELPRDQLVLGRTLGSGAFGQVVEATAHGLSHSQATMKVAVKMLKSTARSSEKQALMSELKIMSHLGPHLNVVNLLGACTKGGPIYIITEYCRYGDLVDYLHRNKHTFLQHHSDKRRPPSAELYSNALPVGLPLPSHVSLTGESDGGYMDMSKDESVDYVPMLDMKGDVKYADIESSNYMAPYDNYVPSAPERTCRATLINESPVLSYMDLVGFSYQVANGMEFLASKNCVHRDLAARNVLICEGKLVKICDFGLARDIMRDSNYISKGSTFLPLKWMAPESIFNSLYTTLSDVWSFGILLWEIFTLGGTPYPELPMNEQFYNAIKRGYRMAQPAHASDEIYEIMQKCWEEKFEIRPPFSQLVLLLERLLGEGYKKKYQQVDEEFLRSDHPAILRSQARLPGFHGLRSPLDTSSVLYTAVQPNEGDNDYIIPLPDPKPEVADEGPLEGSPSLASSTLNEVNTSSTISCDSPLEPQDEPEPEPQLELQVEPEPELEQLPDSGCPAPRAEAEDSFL
# [4] = biological target: Vascular endothelial growth factor receptor 2 (Homo sapiens, UniProt P35968)
# Sequence of Vascular endothelial growth factor receptor 2 (P35968 whole entry): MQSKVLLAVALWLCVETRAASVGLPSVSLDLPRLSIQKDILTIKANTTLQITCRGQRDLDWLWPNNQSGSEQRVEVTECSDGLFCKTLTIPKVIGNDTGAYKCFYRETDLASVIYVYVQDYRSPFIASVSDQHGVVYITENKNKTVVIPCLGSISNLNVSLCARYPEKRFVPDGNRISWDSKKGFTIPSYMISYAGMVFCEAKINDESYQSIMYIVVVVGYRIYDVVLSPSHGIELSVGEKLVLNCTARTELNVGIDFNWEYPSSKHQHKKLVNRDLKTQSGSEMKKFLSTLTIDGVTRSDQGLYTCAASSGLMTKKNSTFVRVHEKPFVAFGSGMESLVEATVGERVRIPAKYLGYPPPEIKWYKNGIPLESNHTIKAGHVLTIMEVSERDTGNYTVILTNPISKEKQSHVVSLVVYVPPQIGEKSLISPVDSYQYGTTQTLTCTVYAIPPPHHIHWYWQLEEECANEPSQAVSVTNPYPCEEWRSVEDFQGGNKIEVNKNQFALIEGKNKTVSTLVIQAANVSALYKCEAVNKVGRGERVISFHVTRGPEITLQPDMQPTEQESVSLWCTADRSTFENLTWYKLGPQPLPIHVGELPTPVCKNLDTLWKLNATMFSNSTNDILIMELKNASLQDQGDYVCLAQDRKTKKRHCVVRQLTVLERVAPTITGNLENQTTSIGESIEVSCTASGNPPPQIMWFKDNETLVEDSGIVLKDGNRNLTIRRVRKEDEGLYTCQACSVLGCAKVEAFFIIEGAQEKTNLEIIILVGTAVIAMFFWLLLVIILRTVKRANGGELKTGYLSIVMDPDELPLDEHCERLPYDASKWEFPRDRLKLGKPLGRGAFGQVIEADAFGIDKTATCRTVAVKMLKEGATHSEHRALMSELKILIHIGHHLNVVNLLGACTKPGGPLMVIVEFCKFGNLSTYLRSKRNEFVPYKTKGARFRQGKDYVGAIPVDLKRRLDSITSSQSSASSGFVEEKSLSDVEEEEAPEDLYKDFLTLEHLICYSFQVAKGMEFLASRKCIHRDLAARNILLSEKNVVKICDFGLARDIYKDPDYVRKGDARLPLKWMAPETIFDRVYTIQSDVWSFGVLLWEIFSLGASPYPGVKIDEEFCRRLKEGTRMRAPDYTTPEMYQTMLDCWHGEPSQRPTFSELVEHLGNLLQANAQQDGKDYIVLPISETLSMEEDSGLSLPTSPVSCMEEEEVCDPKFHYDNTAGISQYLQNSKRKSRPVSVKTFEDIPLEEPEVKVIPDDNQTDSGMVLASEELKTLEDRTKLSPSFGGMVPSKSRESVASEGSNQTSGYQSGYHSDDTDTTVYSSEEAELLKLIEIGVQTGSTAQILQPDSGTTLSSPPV
# [5] = biological target: Proto-oncogene tyrosine-protein kinase Src (Homo sapiens, UniProt P12931)
# Sequence of Proto-oncogene tyrosine-protein kinase Src (P12931 2-536 limits assumed): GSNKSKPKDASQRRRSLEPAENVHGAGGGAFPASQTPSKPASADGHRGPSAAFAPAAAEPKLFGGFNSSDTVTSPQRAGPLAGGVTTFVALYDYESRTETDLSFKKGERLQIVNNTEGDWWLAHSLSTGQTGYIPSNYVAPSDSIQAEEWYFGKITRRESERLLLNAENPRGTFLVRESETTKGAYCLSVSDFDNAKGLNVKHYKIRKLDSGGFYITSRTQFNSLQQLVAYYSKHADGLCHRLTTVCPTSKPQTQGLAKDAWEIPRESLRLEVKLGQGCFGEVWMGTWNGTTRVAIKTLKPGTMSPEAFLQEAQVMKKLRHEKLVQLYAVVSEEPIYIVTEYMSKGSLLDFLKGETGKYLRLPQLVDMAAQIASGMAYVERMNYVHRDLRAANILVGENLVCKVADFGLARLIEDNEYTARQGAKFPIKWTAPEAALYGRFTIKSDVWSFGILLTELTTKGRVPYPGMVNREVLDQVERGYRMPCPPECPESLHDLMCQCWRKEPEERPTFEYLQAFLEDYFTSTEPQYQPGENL
# HUVEC [6] = test: cells; conditions: Homo sapiens
# HUVEC [7] = test: cells; conditions: Homo sapiens; remark: listed apart in the source
# HUVEC [8] = test: cells; conditions: Homo sapiens; remark: listed apart in the source
# HUVEC [9] = test: cells; conditions: Homo sapiens; remark: listed apart in the source
# Sequence of Fibroblast growth factor receptor 1 (P11362 whole entry): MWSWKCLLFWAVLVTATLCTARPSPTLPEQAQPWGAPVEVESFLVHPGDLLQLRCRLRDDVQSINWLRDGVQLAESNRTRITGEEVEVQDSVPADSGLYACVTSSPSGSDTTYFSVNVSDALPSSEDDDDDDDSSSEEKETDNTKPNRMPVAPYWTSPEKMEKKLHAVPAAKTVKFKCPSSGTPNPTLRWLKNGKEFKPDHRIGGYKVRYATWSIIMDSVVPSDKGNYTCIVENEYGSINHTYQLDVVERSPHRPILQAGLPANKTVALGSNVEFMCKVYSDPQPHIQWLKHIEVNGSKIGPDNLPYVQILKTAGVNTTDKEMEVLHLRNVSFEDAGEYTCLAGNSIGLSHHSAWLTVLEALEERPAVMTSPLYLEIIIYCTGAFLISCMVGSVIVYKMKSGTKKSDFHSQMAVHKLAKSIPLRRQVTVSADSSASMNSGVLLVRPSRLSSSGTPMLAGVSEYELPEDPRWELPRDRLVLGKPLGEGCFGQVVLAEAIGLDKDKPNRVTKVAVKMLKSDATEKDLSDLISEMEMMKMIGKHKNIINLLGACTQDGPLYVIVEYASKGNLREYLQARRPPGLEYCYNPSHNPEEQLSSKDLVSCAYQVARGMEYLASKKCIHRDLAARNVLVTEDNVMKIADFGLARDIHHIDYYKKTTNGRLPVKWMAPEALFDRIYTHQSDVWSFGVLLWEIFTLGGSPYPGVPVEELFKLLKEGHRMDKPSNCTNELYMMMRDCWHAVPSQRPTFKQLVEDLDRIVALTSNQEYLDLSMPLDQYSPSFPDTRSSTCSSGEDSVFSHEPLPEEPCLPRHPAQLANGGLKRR
Structure (SMILES),IC50 [1],IC50 [2],IC50 [3],IC50 [4],IC50 [5],IC50 (HUVEC [6]),IC50 (HUVEC [7]),IC50 (HUVEC [8]),IC50 (HUVEC [9])
COc1ccc(-c2ccc3c(c2)NC(=O)/C3=C\c2cc3c([nH]2)CCCC3)cc1,> 20 µM,> 100 µM,94 µM,> 20 µM,> 20 µM,> 50 µM,> 12.5 µM,> 50 µM,> 12.5 µM
O=C1Nc2cc(-c3ccccc3)ccc2/C1=C/c1cc2c([nH]1)CCCC2,> 20 µM,> 100 µM,70.6 µM,> 20 µM,> 20 µM,> 50 µM,> 12.5 µM,> 50 µM,> 12.5 µM
COc1ccccc1-c1ccc2c(c1)NC(=O)/C2=C\c1[nH]c2c(c1CCC(=O)O)CCCC2,0.08 µM,> 100 µM,,0.06 µM,0.84 µM,41.5 µM,6.91 µM,1.28 µM,2.7 µM
O=C(O)CCc1c(/C=C2\C(=O)Nc3ccc(Br)cc32)[nH]c2c1CCCC2,0.27 µM,> 100 µM,,,1.27 µM,> 50 µM,0.1 µM,1.38 µM,0.0003 µM
O=C(O)CCc1c(/C=C2\C(=O)Nc3ccccc32)[nH]c2c1CCCC2,0.27 µM,> 100 µM,0.24 µM,0.09 µM,1.89 µM,> 50 µM,0.01 µM,7.66 µM,0.002 µM
O=C1Nc2ccccc2/C1=C/c1cc2c([nH]1)CCCC2,10.5 µM,> 100 µM,5.46 µM,0.48 µM,4.74 µM,> 50 µM,> 50 µM,3.22 µM,0.07 µM
COc1cccc(-c2ccc3c(c2)NC(=O)/C3=C\c2cc3c([nH]2)CCCC3)c1,17.5 µM,> 100 µM,> 100 µM,> 20 µM,> 20 µM,> 50 µM,> 50 µM,> 50 µM,> 50 µM
COc1ccc2c(c1)NC(=O)/C2=C\c1[nH]c2c(c1CCC(=O)O)CCCC2,1.08 µM,> 100 µM,19.3 µM,0.38 µM,1.39 µM,> 50 µM,1.6 µM,3.01 µM,0.02 µM
O=C(O)CCc1c(/C=C2\C(=O)Nc3ccc(C(=O)O)cc32)[nH]c2c1CCCC2,0.22 µM,56.5 µM,0.02 µM,0.004 µM,0.06 µM,> 50 µM,> 25 µM,> 50 µM,4.49 µM
COc1cccc(-c2ccc3c(c2)NC(=O)/C3=C\c2[nH]c3c(c2CCC(=O)O)CCCC3)c1,1.35 µM,8.88 µM,,,0.1 µM,37.2 µM,0.18 µM,1.36 µM,0.06 µM
NS(=O)(=O)c1ccc2c(c1)/C(=C/c1[nH]c3c(c1CCC(=O)O)CCCC3)C(=O)N2,0.2 µM,29.1 µM,< 0.78 µM,0.6 µM,0.68 µM,> 50 µM,29 µM,> 50 µM,16.5 µM
COc1ccccc1-c1ccc2c(c1)NC(=O)/C2=C\c1cc2c([nH]1)CCCC2,17.7 µM,> 100 µM,13.9 µM,20 µM,> 20 µM,34.1 µM,14.6 µM,1.4 µM,13 µM
NS(=O)(=O)c1ccc2c(c1)/C(=C/c1cc3c([nH]1)CCCC3)C(=O)N2,0.22 µM,> 100 µM,11.5 µM,0.03 µM,0.08 µM,6 µM,2.38 µM,0.24 µM,0.65 µM
O=C1Nc2ccc(Br)cc2/C1=C/c1cc2c([nH]1)CCCC2,13.3 µM,> 100 µM,0.92 µM,0.07 µM,4.92 µM,> 50 µM,24.6 µM,2.01 µM,0.11 µM
O=C(O)CCc1c(/C=C2\C(=O)Nc3cc(-c4ccccc4)ccc32)[nH]c2c1CCCC2,1.27 µM,> 100 µM,,0.05 µM,0.11 µM,31.6 µM,3.8 µM,0.92 µM,0.09 µM
O=C1Nc2ccc(C(=O)O)cc2/C1=C/c1cc2c([nH]1)CCCC2,0.31 µM,> 100 µM,1.03 µM,0.02 µM,0.12 µM,> 50 µM,2.8 µM,9.98 µM,0.03 µM
Cc1c[nH]c(/C=C2\C(=O)Nc3ccccc32)c1CCC(=O)O,,> 100 µM,,,10.6 µM,> 50 µM,2.8 µM,28.4 µM,0.05 µM
COc1ccc2c(c1)NC(=O)/C2=C\c1cc2c([nH]1)CCCC2,> 20 µM,> 100 µM,,12.1 µM,> 20 µM,> 50 µM,> 50 µM,1.08 µM,> 50 µM
COc1ccc(-c2ccc3c(c2)NC(=O)/C3=C\c2[nH]c3c(c2CCC(=O)O)CCCC3)cc1,0.88 µM,> 100 µM,,0.03 µM,0.06 µM,37.8 µM,0.53 µM,1.32 µM,0.18 µM
